Measurements: US20100280024A1, “RENIN INHIBITORS” (priority 2007, published 2010)
Where a name gives a salt, the structure may show the parent alone.

Tests used:
[1] = molecular target: T1, Renin (Homo sapiens, UniProt P00797); test: In-vitro renin inhibition assay (modified Cayman renin inhibitor screening assay, fluorescence); type: biochemical; set-up: purchased Cayman 10006270; details: 37° C., 30 mins; for inhibition at 0.1 µM: read-out: Renin inhibition (percent inhibition of renin activity) at 0.1 μM; for inhibition at 1 µM: read-out: Renin inhibition (percent inhibition of renin activity) at 1 μM
T1 sequence (P00797 67-406): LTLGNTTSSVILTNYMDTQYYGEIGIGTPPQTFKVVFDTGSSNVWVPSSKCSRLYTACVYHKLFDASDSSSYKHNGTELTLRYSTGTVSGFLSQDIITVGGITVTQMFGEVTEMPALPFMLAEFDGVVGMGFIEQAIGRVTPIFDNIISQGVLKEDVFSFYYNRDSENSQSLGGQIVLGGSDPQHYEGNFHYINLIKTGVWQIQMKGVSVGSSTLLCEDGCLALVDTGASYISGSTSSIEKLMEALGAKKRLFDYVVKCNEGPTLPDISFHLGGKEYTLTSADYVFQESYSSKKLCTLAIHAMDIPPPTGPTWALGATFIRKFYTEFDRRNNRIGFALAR
Experimental: In-Vitro Renin Inhibition Assay
The enzymatic in vitro assay was performed in 96 well polypropylene plate (Nunc), using a modified Renin inhibitor screening assay protocol (Cayman, cat no: 10006270). The reaction system comprised assay buffer containing 50 mM Tris-HCL, pH=8.0 & 100 mM sodium chloride, human recombinant renin (1:20 diluted with fixed activity), synthetic renin substrates (9.5 μM) and different concentrations of renin inhibitors in DMSO in a total reaction system of 100 μl. The entire incubation mixture were incubated at 37° C. for 30 mins and the fluorescence was read in kinetic mode using excitation wavelengths of 335-345 nm and emission wavelengths of 485-510 nm. Enzyme inhibition was determined by percent inhibition of renin activity.

[2] = molecular target: T1, Renin; test: Renin inhibition in human plasma (IC50); type: biochemical; set-up: from tissue; host or cells: human plasma
Text: Following table represents measured IC50 values of the selected compounds for its Renin inhibition in human plasma.

Work on `Cc1cc(Cl)c(OCCOc2ccc(CC(CN)C(=O)N3CCCCC3)cc2)c(Cl)c1` (centres unmarked) [Example 12, 3-Amino-2-{4-[2-(2,6-dichloro-4-methyl-phenoxy)-ethoxy]-benzyl}-1-piperidin-1-yl-propan-1-one] yielded an inhibition at 0.1 µM ([1]; compound concentration 0.1 μM) of 77%, an inhibition at 1 µM ([1]; compound concentration 1 μM) of 90.7% and an IC50 [2] of 0.0702 µM.
`Cc1cc(Cl)c(OCCOc2ccc(CC(CN)C(=O)N3CCCc4cc(C(F)(F)F)ccc43)cc2)c(Cl)c1.Cl` (centres unmarked) [Example 15A, 3-Amino-2-{4-[2-(2,6-dichloro-4-methyl-phenoxy)-ethoxy]-benzyl}-1-(6-trifluoromethyl-3,4-dihydro-2H -quinolin-1-yl)-propan-1-one hydrochloride] was tested, and the “Renin inhibition (percent inhibition of renin activity) at 0.1 μM” value ([1]; compound concentration 0.1 μM) was 80.00, the “Renin inhibition (percent inhibition of renin activity) at 1 μM” value ([1]; compound concentration 1 μM) was 88.0 and the IC50 [2] was 0.00785 µM.
`COCCCOc1ccc2c(c1)CCCN2C(=O)C(CN)Cc1ccc(OCCOc2c(Cl)cc(C)cc2Cl)cc1` (centres unmarked) [Example 24, 3-Amino-2-{4-[2-(2,6-dichloro-4-methyl-phenoxy)-ethoxy]-benzyl}-1-[6-(3-methoxy-propoxy)-3,4-dihydro-2H-quinolin-1-yl]-propan-1-one] showed an inhibition at 0.1 µM ([1]; compound concentration 0.1 μM) of 90.7%, an inhibition at 1 µM ([1]; compound concentration 1 μM) of 93.2% and an IC50 [2] of 0.0254 µM.
`COCC1CCCN(C(=O)C(CN)Cc2ccc(OCCOc3c(Cl)cc(C)cc3Cl)cc2)C1` (centres unmarked) [Example 26, 2-Aminomethyl-3-{4-[2-(2,6-dichloro-4-methyl-phenoxy)-ethoxy]-phenyl}-1-(3-methoxymethyl-piperidin-1-yl)-propan-1-one hydrochloride] showed an inhibition at 0.1 µM ([1]; compound concentration 0.1 μM) of 92.8%, an inhibition at 1 µM ([1]; compound concentration 1 μM) of 93.9% and an IC50 [2] of 0.0278 µM.
Compound `Cc1cc(Cl)c(OCCOc2ccc(CC(CN)C(=O)N3CCCc4cc(OC(F)(F)F)ccc43)cc2)c(Cl)c1` (centres unmarked) [Example 27, 3-Amino-2-{4-[2-(2,6-dichloro-4-methyl-phenoxy)-ethoxy]-benzyl}-1-(6-trifluoromethoxy-3,4-dihydro-2H-quinolin-1-yl)-propan-1-one hydrochloride] has an inhibition at 0.1 µM ([1]; compound concentration 0.1 μM) of 100%, an inhibition at 1 µM ([1]; compound concentration 1 μM) of 99.2% and an IC50 [2] of 0.000921 µM.
`NCC(Cc1ccc(OCCOc2c(Cl)cccc2Cl)cc1)C(=O)N1CCCc2cc(C(F)(F)F)ccc21` (centres unmarked) [Example 31, 3-Amino-2-{4-[2-(2,6-dichloro-phenoxy)-ethoxy]-benzyl}-1-(6-trifluoromethyl-3,4-dihydro-2H-quinolin-1-yl)-propan-1-one hydrochloride] was tested, and the inhibition at 0.1 µM ([1]; compound concentration 0.1 μM) was 94.1%, the inhibition at 1 µM ([1]; compound concentration 1 μM) was 102% and the IC50 [2] was 0.0287 µM.
Compound `NCC(Cc1ccc(OCCOc2c(Cl)cccc2Cl)cc1)C(=O)N1CCCc2cc(OC(F)(F)F)ccc21` (centres unmarked) [Example 32, 3-Amino-2-{4-[2-(2,6-dichloro-phenoxy)-ethoxy]-benzyl}-1-(6-trifluoromethoxy-3,4-dihydro-2H-quinolin-1-yl)-propan-1-one hydrochloride] has an inhibition at 0.1 µM ([1]; compound concentration 0.1 μM) of 100% and an IC50 [2] of 0.000829 µM.
For `Cc1cc(Cl)c(OCCOc2ccc(CC(CN)C(=O)N3CCCc4cc(C(F)(F)F)ccc43)cn2)c(Cl)c1` (centres unmarked) [Example 41, 3-Amino-2-{6-[2-(2,6-dichloro-4-methyl-phenoxy)-ethoxy]-pyridin-3-ylmethyl}-1-(6-trifluoromethyl-3,4-dihydro-2H-quinolin-1-yl)-propan-1-one], the inhibition at 0.1 µM ([1]; compound concentration 0.1 μM) was 80.1% and the inhibition at 1 µM ([1]; compound concentration 1 μM) was 98.6%.
In the case of `Cc1cc(Cl)c(OCCOc2ccc(CC(CN)C(=O)N3CCCCC3)cn2)c(Cl)c1` (centres unmarked) [Example 42, 2-Aminomethyl-3-{6-[2-(2,6-dichloro-4-methyl-phenoxy)-ethoxy]-pyridin-3-yl}-1-piperidin-1-yl-propan-1-one], the inhibition at 0.1 µM ([1]; compound concentration 0.1 μM) is reported as 71% and the inhibition at 1 µM ([1]; compound concentration 1 μM) is reported as 82.5%.
In the case of `Cc1cc(Cl)c(OCCOc2ccc(CC(CN)C(=O)N3CCCc4ccccc43)cn2)c(Cl)c1` (centres unmarked) [Example 43, 2-Aminomethyl-3-{6-[2-(2,6-dichloro-4-methyl-phenoxy)-ethoxy]-pyridin-3-yl}-1-(3,4-dihydro-2H-quinolin-1-yl)-propan-1-one], the inhibition at 1 µM ([1]; compound concentration 1 μM) is reported as 64.2%.
`Cc1cc(Cl)c(OCCOc2ccc(CC(CN)C(=O)N3CCCc4cc(F)ccc43)cn2)c(Cl)c1` (centres unmarked) [Example 44, 3-Amino-2-{6-[2-(2,6-dichloro-4-methyl-phenoxy)-ethoxy]-pyridin-3-ylmethyl}-1-(6-fluoro-3,4-dihydro-2H-quinolin-1-yl)-propan-1-one hydrochloride] was tested, and the inhibition at 0.1 µM ([1]; compound concentration 0.1 μM) was 63.1% and the inhibition at 1 µM ([1]; compound concentration 1 μM) was 96.3%.
In the case of `Cc1cc(Cl)c(OCCCOc2ccc(CC(CN)C(=O)N3CCCc4ccccc43)cc2)c(Cl)c1` (centres unmarked) [Example 45, 2-Aminomethyl-3-{4-[3-(2,6-dichloro-4-methyl-phenoxy)-propoxy]-phenyl}-1-(3,4-dihydro-2H-quinolin-1-yl)-propan-1-one], the inhibition at 0.1 µM ([1]; compound concentration 0.1 μM) is reported as 18.7% and the inhibition at 1 µM ([1]; compound concentration 1 μM) is reported as 97.1%.
For `COc1ccccc1COCCCOc1ccc(CC(CN)C(=O)N2CCCc3cc(C(F)(F)F)ccc32)cc1` (centres unmarked) [Example 47, 3-Amino-2-{4-[3-(2-methoxy-benzyloxy)-propoxy]-benzyl}-1-(6-trifluoromethyl-3,4-dihydro-2H-quinolin-1-yl)-propan-1-one], the inhibition at 0.1 µM ([1]; compound concentration 0.1 μM) was 43.1%.
`COc1cc(CC(CN)C(=O)N2CCCc3ccccc32)ccc1OCCOc1c(Cl)cc(C)cc1Cl` (centres unmarked) [Example 48, 3-Amino-2-{4-[2-(2,6-dichloro-4-methyl-phenoxy)-ethoxy]-3-methoxy-benzyl}-1-(3,4-dihydro-2H-quinolin-1-yl)-propan-1-one hydrochloride] was tested, and the inhibition at 1 µM ([1]; compound concentration 1 μM) was 58.5%.
In the case of `CC(C)(C)c1ccc2c(c1)CCCN2C(=O)C(CN)Cc1ccc(OCCOc2c(Cl)cccc2Cl)cc1` (centres unmarked) [Example 53, 3-Amino-1-(6-tert-butyl-3,4-dihydro-2H-quinolin-1-yl)-2-{4-[2-(2,6-dichloro-phenoxy)-ethoxy]-benzyl}-propan-1-one hydrochloride], the inhibition at 0.1 µM ([1]; compound concentration 0.1 μM) is reported as 93.1%.
